Assays:
[1] = test system: MUC1-wt; assay: BRD-4780 treatment in fs/+ knock-in mice, kidney MUC1-wt by IF; assay type: in vivo, mouse; conditions: daily oral gavage, 7 days
Experimental: Mice were anesthetized with 3 L/min 02 mixed with 3% isoflurane using the Combi-Vet® system (Rothacher Medical, Bern, Switzerland) for 5 min. Mouse kidneys were removed, sagittally cut to half and rapidly frozen in Tissue-Tek® O.C.T. Compound, Sakura® Finetek (OCT) (25608-930, VWR) using dry ice and 100% ethanol. Five […] sagittal cryosections (CM1950, Leica) were thaw mounted on microscope slides (Fisherbrand™ Superfrost™ Plus, Fisher Scientific) and kept in the cryostat (at −26° C.) for the duration of the sectioning process. Sections were immersion-fixed for 10 min in 4% PFA (15710, Electron Microscopy Sciences), then washed in PBS. The slides were then subjected to antigen retrieval by immersion in 10 mM citric acid buffer (pH=6), for 10 minutes at 95° C. […]
MUC1-fs and MUC1-wt mean intensities were calculated in kidney sections of mice treated with either vehicle or BRD-4780 (FIGS. 4A, 4B and 12A). As MUC1-fs and MUC1-wt levels varied in different kidney regions, and as sections might contain different portions of the different kidney regions, the levels of these proteins were analyzed only in NCC-positive distal convoluted tubules. […] Each fluorescent channel intensity was measured and a threshold was set for the identification of NCC positive cells. MUC1-fs and MUC1-wt levels were then calculated only in the NCC positive cells. […]

[2] = in vivo; conditions: mouse
Experimental: 1) A pharmacokinetic study was performed by WuXi AppTec (Hong Kong) in fasted male 129S2/SvPasCrl mice (study #400565-20170331-MPK) to determine the oral bioavailability of BRD-4780. A single dose of BRD-4780 was administered at 3.0 mg/kg intravenously (i.v.) or 10.0 mg/kg orally (p.o) in a clear solution of 10% HP-β-CD in saline. Blood was collected serially from n=3 mice per dose group at eight time points post dose administration (0.25, 0.5, 1, 2, 4, 6, 8 and 24 hours) and plasma was obtained by centrifugation. Plasma drug concentration was determined by LC-MS/MS and reported as BRD-4780 ng/mL for plasma and ng/mg for kidney tissue, and plotted as the mean±standard deviation concentration (FIG. 11A). Standard pharmacokinetic parameters were calculated (FIG. 11B).

[3] = Plasma stability; assay type: in vitro ADME
Experimental: Plasma stability was determined at 37° C. at 5 hr in plasma. Each compound was prepared in duplicate at 5 μM in plasma diluted 50/50 (v/v) with PBS pH 7.4 (0.95% acetonitrile, 0.05% DMSO). Duplicate plates were prepared. One plate was incubated at 37° C. for 5 hr with a 350 rpm orbital shake, while the other plate was immediately quenched. Each well was quenched by adding acetonitrile to a 3:1 ratio (v/v, ACN/plasma). After quenching, samples were centrifuged (32×G) to pellet precipitated particulates and an aliquot of supernatant was diluted 50/50 (v/v) with water. The resulting solution was analyzed by UPLC-MS/MS with compounds detected by MRM detection on a triple quadrupole mass spectrometer. The compound peak areas at 0 and 5 hr were compared to determine a percent remaining. Percent remaining in plasma was calculated through the following equation: % remaining=[area (5 hr)/area (0 hr)]×100. (LC System, Waters Acquity I-Class; MS System, AB Sciex Triple Quad 4500; Column, Waters Acquity UPLC BEH C18, 1.7 μm, 2.1×50 mm; Mobile Phase A, Water with 0.1% formic acid; Mobile Phase B, Acetonitrile with 0.1% formic acid; Flow Rate, 0.90 mL/min; Column Temperature, 55° C.).

CC(C)[C@@H]1[C@H]2CC[C@H](C2)[C@H]1N (racemic) [BRD-4780, 2-endo-amino-3-exo-isopropylbicyclo[2.2.1]heptane]
MUC1-wt in mouse kidneys [1]: no effect on MUC1-wt
bioavailability ([2]; male, 129S2/SvPasCrl): 119%
oral bioavailability (in words) ([2]; po): excellent oral bioavailability
plasma stability [3]: good microsomal and plasma stability

Reference: US12023308B2, “Agents for reversing toxic proteinopathies” (THE BROAD INSTITUTE, INC., priority 2019, dated 2024)
